# Experimental data: US20230000844A1, “BIOMARKERS FOR NANOPARTICLE COMPOSITIONS” (Abraxis BioScience, LLC, priority 2019, published 2023)
# Legend:
# [1] = test system: malignant PEComa; assay: Case: malignant PEComa patient (TSC1 mutation) who failed everolimus, then treated with nab-sirolimus; assay type: in vivo, human
# Procedure: A post-menopausal person with family history of lymphoma in their parent and breast, ovarian cancer in a paternal aunt, presented with abnormal uterine bleeding in July 2018. […] Following this, a laparoscopic hysterectomy with bilateral salpingo-oophorectomy was performed and pathology was consistent with malignant PEComa which stained positive for smooth muscle actin, HMB-45 and Melan-A (59 mitoses per 10 hpf).
# The primary tumor was locally advanced, and no metastatic disease was present at the time of diagnosis, adjuvant chemotherapy was not administered, and the patient was monitored with serial scans.
# Upon disease progression, the patient was started on 10 mg everolimus orally daily.
# After failure of treatment with everolimus, the patient was treated with nab-sirolimus at 100 mg/m^2 on day 1 and day 8 of a 21 day cycle started in July of 2019. They also received stereotactic radiosurgery to the metastatic lesion in their brain.
# [2] = test system: tumors with TSC1 or TSC2 mutations; settings: 2/30 patients; cited from earlier work
# [3] = in vivo; cited from earlier work
# [4] = test system: ABCB1/ABCG2; settings: cited from earlier work
# [5] = Stable isotope tracer ultrafiltration assay (SITUA) of rapamycin drug release from ABI-009 lots; assay type: physicochemical; settings: 10 minutes incubation, 4.5% human serum albumin, 29° C.
# Procedure: A study was also undertaken to analyze rapamycin drug release from 12 lots of ABI-009 (Lots #1-10 and Lots 14-15) using a stable isotope tracer ultrafiltration assay (SITUA) (see Skoczen et al., Stable Isotope Method to Measure Drug Release from Nanomedicines, J. Control Release, 220(A):169-174 (2015). Drug release was examined at 10 μg/ml and 500 μg/ml of rapamycin following 10 minutes of incubation. Briefly, stable, isotope-labeled rapamycin was spiked into 4.5% human serum albumin (25% Albutein HSA diluted in 0.9% saline). MeOH-solvent rapamycin (as a control) or fresh reconstituted samples of each lot at 10 μg/ml or 500 μg/ml were added. After 10 minutes of equilibration at 29° C., a portion of the sample is taken and filtered using Vivacon®) 10 kDa MWCO centrifuge devices prewarmed to 29° C. The sample and the ultrafiltrate are analyzed by LC-MS to determine the concentrations of normal rapamycin and isotope-labelled rapamycin. The ultrafilterable fraction of isotope-labeled rapamycin represents a measurement of free unbound fraction.
# The encapsulated and unencapsulated nanoparticle fractions can also be calculated.
# [6] = test system: non-PEComa cancer with TSC1, TSC2 or mTOR mutation; assay: ABI-009 Expanded Access Protocol: single-agent ABI-009 in non-PEComa patients with relevant mTOR pathway mutations; assay type: in vivo, human; parameters: key: CR: disappearance of all target lesions; PR: at least a 30% decrease in the sum of the longest diameters (SLD) of target lesions; SD: neither sufficient shrinkage of target lesions to qualify for PR, nor sufficient increase to qualify for PD; PD: at least a 20% increase in the SLD of target lesions; settings: Patient #4, metastatic epithelial ovarian carcinoma
# Text: Seven patients were enrolled under ABI-009 Expanded Access Protocol. See Table 14 below for information about their tumor type, relevant mutation, failed prior therapy and response to ABI-009. ABI-009 was produced according to Example 7.
smiles,measurement,setting,value
CO[C@H]1C[C@@H]2CC[C@@H](C)[C@@](O)(O2)C(=O)C(=O)N2CCCC[C@H]2C(=O)O[C@H]([C@H](C)C[C@@H]2CC[C@@H](OCCO)[C@H](OC)C2)CC(=O)[C@H](C)/C=C(\C)[C@@H](O)[C@@H](OC)C(=O)[C@H](C)C[C@H](C)/C=C/C=C/C=C/1C [everolimus],CT scan result 2 months after starting everolimus,"[1]; everolimus 10 mg orally daily, reduced to 5 mg",progressive disease
same,adverse event related to everolimus,[1]; three weeks after beginning 10 mg orally daily,hospitalized due to fever and headache
same,responses in patients with TSC1 or TSC2 mutations,[2],7%
COc1ccc(COc2cc3oc(=O)c4cc(C(C)O)ccc4c3cc2OC)cc1 (centres unmarked) [Palomid 529],brain penetration,[3],good brain penetration
same,affinity for ABCB1/ABCG2,[4],lacks affinity
CO[C@H]1C[C@@H]2CC[C@@H](C)[C@@](O)(O2)C(=O)C(=O)N2CCCC[C@H]2C(=O)O[C@H]([C@H](C)C[C@@H]2CC[C@@H](O)[C@H](OC)C2)CC(=O)[C@H](C)/C=C(\C)[C@@H](O)[C@@H](OC)C(=O)[C@H](C)C[C@H](C)/C=C/C=C/C=C/1C [Free rapamycin],Avg. Release (%),[5]; 10 μg/ml rapamycin,97.2%
same,Avg. Release (%),[5]; 500 μg/ml rapamycin,18.3%
CC(C)n1nc(-c2ccc3oc(N)nc3c2)c2c(N)ncnc21 [MLN0128],best response on prior MLN0128,[6],SD
